Common to all, as to assay type: functional
Assay [1] addresses Leucine-rich repeat serine/threonine-protein kinase 2 (Homo sapiens, UniProt Q5S007).
Assay [2] addresses Dual specificity protein kinase CLK4 (Homo sapiens, UniProt Q9HAZ1).
In assay [3] the target is cAMP-dependent protein kinase catalytic subunit alpha (Homo sapiens, UniProt P17612).
In assay [4] the target is 5'-AMP-activated protein kinase catalytic subunit alpha-1 (Homo sapiens, UniProt Q13131).
Assay [5] addresses Calcium/calmodulin-dependent protein kinase type II subunit alpha (Homo sapiens, UniProt Q9UQM7). Description: Navigating the Kinome. Panel member name: CAMK2A.
The target of assay [6] is Vascular endothelial growth factor receptor 2 (Homo sapiens, UniProt P35968).
Assay [7] concerns the target Tyrosine-protein kinase Lck (Homo sapiens, UniProt P06239).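 Further: lck was assayed as one member of a kinase panel.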
The target in assay [8] is Receptor-type tyrosine-protein kinase FLT3 (Homo sapiens, UniProt P36888).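 Further: FLT3 was tested as one member of a kinome-wide kinase panel.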
Assay [9] concerns the target Inhibitor of nuclear factor kappa-B kinase subunit epsilon (Homo sapiens, UniProt Q14164). In words: Navigating the Kinome. Panel member name: IKBKE.
The target in assay [10] is Glycogen synthase kinase-3 beta (Homo sapiens, UniProt P49841).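 Further: value comes from a broad kinome profiling panel, with GSK3B as the panel member.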
Assay [11] concerns the target Focal adhesion kinase 1 (Homo sapiens, UniProt Q05397).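 Further: measured as one member of a kinome panel.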
For assay [12], the target named is Glycogen synthase kinase-3 alpha (Homo sapiens, UniProt P49840).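 Further: GSK3A result taken from a broad kinome-wide kinase panel.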
The target in assay [13] is Vascular endothelial growth factor receptor 1 (Homo sapiens, UniProt P17948).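 Further: measured within a kinome-wide profiling panel, FLT1 as the panel member.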
Assay [14] deals with Serine/threonine-protein kinase TAO1 (Homo sapiens, UniProt Q7L7X3).
In assay [15] the target is Aurora kinase A (Homo sapiens, UniProt O14965).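 Further: value from the Navigating the Kinome kinase panel profiling, panel entry STK6.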
Assay [16] concerns the target Dual specificity mitogen-activated protein kinase kinase 1 (Homo sapiens, UniProt Q02750). Description: Navigating the Kinome. Panel member name: MAP2K1.
In assay [17] the target is Ribosomal protein S6 kinase alpha-3 (Homo sapiens, UniProt P51812).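 Further: measured within a kinome-wide profiling panel.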
Assay [18] deals with Macrophage colony-stimulating factor 1 receptor (Homo sapiens, UniProt P07333).
Assay [19] addresses Protein kinase C theta type (Homo sapiens, UniProt Q04759). In words: Navigating the Kinome. Panel member name: PRKCQ.
Assay [20] has as its target Hepatocyte growth factor receptor (Homo sapiens, UniProt P08581).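 Further: kinase panel profiling across the kinome, with MET as the panel member.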
Assay [21] addresses Leukocyte tyrosine kinase receptor (Homo sapiens, UniProt P29376). Description: Navigating the Kinome. Panel member name: LTK.
For assay [22], the target named is G protein-coupled receptor kinase 5 (Homo sapiens, UniProt P34947). Description: Navigating the Kinome. Panel member name: GPRK5.
Assay [23] deals with LIM domain kinase 1 (Homo sapiens, UniProt P53667). Description: Navigating the Kinome. Panel member name: LIMK1.
Assay [24] concerns the target Tyrosine-protein kinase ABL1 (Homo sapiens, UniProt P00519).
Assay [25] has as its target Serine/threonine-protein kinase Chk1 (Homo sapiens, UniProt O14757).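 Further: measured as one member of a kinome-wide kinase profiling panel.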
Assay [26] addresses Activin receptor type-1 (Homo sapiens, UniProt Q04771). Description: Navigating the Kinome. Panel member name: ACVR1.
The target of assay [27] is Aurora kinase B (Homo sapiens, UniProt Q96GD4).

SMILES strings stand for the structures. The source made the active and inactive calls. Some results are limits rather than exact numbers.

Leukocyte tyrosine kinase receptor, sequence (P29376 whole entry): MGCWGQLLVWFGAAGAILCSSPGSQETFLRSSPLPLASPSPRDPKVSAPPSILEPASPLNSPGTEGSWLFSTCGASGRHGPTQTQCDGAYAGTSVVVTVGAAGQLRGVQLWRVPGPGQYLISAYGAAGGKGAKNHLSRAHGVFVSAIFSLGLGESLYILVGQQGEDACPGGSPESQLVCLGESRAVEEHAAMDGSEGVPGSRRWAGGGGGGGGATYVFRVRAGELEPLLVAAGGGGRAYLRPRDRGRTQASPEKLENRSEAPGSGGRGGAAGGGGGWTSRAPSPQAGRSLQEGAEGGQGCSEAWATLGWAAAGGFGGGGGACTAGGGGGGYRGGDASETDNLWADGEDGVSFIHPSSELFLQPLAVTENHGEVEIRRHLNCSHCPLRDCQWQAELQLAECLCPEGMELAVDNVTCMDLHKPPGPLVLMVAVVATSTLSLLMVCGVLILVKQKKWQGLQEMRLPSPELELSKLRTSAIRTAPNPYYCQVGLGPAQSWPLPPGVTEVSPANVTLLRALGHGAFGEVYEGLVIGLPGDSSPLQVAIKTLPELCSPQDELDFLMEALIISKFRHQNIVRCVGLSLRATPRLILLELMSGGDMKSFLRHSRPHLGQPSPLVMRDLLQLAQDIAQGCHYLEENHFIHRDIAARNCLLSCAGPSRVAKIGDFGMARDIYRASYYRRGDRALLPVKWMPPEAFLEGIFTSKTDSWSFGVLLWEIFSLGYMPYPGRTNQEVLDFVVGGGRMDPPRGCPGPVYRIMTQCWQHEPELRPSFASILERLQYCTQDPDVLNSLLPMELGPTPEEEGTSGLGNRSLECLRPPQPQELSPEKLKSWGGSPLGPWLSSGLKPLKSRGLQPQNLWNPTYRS
Calcium/calmodulin-dependent protein kinase type II subunit alpha, sequence (Q9UQM7 whole entry): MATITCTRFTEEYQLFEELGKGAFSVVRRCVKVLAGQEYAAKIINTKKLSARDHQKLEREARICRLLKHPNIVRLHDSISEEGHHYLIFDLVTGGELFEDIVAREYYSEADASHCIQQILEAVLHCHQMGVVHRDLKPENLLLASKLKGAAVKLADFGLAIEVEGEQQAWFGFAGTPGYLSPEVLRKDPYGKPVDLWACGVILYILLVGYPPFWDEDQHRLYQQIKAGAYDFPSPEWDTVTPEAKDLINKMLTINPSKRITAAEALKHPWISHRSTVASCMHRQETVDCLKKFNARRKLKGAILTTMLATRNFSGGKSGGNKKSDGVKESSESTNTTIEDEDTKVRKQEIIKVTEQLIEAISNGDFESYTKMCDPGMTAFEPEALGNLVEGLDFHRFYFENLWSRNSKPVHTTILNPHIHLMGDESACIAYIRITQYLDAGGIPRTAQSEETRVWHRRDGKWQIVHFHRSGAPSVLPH
Dual specificity protein kinase CLK4, sequence (Q9HAZ1 whole entry): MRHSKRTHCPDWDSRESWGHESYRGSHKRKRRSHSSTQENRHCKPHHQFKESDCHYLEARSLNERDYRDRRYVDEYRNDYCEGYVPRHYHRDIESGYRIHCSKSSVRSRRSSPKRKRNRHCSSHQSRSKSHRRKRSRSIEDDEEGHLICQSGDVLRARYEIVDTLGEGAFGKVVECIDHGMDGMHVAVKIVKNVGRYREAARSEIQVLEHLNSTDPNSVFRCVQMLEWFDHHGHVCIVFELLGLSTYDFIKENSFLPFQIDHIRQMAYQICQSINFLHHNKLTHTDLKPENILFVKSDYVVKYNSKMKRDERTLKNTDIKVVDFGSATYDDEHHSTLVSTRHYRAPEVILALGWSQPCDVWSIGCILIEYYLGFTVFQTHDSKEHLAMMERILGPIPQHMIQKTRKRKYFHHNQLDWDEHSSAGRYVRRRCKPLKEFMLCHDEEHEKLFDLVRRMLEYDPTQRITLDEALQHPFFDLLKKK
5'-AMP-activated protein kinase catalytic subunit alpha-1, sequence (Q13131 whole entry): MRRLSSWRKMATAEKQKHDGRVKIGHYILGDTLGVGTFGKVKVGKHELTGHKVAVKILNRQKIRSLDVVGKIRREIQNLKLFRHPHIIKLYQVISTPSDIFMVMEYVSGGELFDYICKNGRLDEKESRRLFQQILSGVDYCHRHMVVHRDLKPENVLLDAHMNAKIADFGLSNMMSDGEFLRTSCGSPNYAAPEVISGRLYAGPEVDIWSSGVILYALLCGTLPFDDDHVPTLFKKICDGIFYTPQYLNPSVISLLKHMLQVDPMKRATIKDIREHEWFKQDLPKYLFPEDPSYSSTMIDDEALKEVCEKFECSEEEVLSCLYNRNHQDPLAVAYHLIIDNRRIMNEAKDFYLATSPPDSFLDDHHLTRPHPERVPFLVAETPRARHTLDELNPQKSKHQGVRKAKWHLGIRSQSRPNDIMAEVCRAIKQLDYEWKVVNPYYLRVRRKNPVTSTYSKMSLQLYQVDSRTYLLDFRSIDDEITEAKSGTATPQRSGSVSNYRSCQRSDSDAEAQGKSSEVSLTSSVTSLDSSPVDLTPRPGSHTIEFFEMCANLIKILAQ
Vascular endothelial growth factor receptor 1, sequence (P17948 whole entry): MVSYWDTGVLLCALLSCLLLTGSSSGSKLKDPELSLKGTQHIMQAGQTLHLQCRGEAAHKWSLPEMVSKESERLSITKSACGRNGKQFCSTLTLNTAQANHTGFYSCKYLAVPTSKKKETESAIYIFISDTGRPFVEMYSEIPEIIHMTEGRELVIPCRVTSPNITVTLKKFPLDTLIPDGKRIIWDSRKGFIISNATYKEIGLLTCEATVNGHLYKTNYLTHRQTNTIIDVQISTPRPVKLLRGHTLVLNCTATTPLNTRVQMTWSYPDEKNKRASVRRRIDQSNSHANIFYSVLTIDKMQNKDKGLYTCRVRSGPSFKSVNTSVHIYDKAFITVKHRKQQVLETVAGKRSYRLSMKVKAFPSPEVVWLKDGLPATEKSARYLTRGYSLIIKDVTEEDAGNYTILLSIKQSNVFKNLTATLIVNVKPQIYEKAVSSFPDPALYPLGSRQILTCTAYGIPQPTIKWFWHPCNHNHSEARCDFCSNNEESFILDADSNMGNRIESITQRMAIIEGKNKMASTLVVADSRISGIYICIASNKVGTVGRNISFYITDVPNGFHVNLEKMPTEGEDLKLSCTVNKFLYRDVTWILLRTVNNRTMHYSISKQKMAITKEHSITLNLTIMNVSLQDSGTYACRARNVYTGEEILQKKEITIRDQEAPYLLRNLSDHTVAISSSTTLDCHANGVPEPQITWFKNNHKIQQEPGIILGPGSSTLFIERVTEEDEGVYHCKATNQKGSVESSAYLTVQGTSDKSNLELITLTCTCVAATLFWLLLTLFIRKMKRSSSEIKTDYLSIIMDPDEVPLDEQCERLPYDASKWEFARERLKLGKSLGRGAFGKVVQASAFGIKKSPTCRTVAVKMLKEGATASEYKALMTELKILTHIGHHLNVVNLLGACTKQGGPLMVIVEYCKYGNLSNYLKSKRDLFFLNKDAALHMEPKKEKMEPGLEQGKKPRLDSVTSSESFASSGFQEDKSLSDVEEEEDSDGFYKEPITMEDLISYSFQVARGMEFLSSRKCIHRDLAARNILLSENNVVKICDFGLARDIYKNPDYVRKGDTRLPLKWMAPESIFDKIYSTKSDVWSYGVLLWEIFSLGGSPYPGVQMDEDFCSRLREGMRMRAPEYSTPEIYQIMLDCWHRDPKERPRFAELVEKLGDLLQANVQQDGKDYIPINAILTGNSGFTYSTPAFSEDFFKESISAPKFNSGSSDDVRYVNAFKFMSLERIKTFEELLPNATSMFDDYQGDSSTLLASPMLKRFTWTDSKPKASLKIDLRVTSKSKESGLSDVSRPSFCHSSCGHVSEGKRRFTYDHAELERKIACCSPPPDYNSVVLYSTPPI
Glycogen synthase kinase-3 beta, sequence (P49841 whole entry): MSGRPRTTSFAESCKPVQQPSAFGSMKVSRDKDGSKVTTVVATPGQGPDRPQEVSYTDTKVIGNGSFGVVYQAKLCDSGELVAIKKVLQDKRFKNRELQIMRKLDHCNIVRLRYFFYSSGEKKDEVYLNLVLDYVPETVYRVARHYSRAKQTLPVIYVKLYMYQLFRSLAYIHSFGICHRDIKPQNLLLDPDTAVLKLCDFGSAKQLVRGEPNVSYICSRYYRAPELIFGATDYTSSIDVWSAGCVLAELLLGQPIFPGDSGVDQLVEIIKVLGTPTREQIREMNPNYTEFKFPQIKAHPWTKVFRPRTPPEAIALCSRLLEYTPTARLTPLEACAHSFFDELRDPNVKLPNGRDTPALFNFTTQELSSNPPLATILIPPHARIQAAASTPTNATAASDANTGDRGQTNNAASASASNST
Protein kinase C theta type, sequence (Q04759 whole entry): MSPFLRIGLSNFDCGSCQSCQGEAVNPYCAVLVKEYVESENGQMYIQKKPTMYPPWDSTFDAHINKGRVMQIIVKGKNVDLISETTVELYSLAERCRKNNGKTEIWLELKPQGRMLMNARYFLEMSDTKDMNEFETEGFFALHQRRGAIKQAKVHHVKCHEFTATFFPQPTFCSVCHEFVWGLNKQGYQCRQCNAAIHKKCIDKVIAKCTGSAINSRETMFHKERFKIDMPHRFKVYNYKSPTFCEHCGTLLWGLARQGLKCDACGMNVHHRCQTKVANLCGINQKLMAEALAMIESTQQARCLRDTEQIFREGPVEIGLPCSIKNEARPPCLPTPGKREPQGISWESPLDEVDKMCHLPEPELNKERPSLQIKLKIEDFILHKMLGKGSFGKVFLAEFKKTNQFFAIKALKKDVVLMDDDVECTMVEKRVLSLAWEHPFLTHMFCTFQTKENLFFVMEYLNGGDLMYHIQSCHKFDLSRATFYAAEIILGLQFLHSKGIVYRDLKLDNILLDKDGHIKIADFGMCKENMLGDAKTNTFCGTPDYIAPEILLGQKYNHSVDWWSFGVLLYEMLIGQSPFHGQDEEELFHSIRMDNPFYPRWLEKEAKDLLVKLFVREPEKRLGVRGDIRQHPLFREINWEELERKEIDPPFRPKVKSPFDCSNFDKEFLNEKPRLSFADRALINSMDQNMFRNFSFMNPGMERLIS

The Ki is the equilibrium dissociation constant of an inhibitor or competing ligand from its target. As to `CCCOc1cccc(C(C)NC(=O)c2ccc(-c3ccncc3F)cc2)c1` (stereo not given), the Ki in [1] was > 2.51 µM (inactive); in assay [2], 0.1 µM (active); in assay [3] it was 1 µM (active); in assay [4] it was > 3.16 µM (inactive); in assay [5] it was > 7.94 µM (inactive); in assay [6], > 2.51 µM (inactive). Besides, the Ki in [7] was > 6.31 µM (inactive); in assay [8] it was > 3.16 µM (inactive); in assay [9], > 3.16 µM (inactive); in assay [10], 2.51 µM (active); in assay [11], > 6.31 µM (inactive); in assay [12], 3.16 µM (active). The Ki in assay [13] is > 3.98 µM (inactive); in assay [14] it was > 6.31 µM (inactive); in [15], > 1.58 µM (inactive); in assay [16], > 3.16 µM (inactive); in assay [17], > 3.98 µM (inactive); in [18], > 2.51 µM (inactive). The Ki in [19] was 2 µM (active); in assay [20], > 2.51 µM (inactive); in assay [21] it was > 2.51 µM (inactive); in assay [22], > 3.98 µM (inactive).

Turning to `COc1cccc(C(C)NC(=O)c2cnc(-c3ccncc3)nc2)c1` (stereo not given), the Ki in assay [1] is > 2.51 µM (inactive); in assay [2] it was > 2.51 µM (inactive); in [3], 0.126 µM (active); in assay [23], > 3.16 µM (inactive); in assay [4] it was > 3.16 µM (inactive); in [5], > 7.94 µM (inactive). Further, the Ki in assay [6] is > 2.51 µM (inactive); in [8], > 3.16 µM (inactive); in assay [24], > 3.98 µM (inactive); in [9], > 3.16 µM (inactive); in assay [10] it was 1.58 µM (active); in assay [12], 2.51 µM (active). For the same compound, the Ki in assay [13] is > 3.98 µM (inactive); in [25], > 3.16 µM (inactive); in assay [14], > 6.31 µM (inactive); in assay [15], > 1.58 µM (inactive); in assay [26], > 3.98 µM (inactive); in [16], > 3.16 µM (inactive). Further, the Ki in [27] is > 3.98 µM (inactive); in [18] it was > 2.51 µM (inactive); in assay [19], 0.631 µM (active); in assay [21], > 2.51 µM (inactive); in assay [22], > 3.98 µM (inactive).
